# Measured values taken from patent US5928185A, “Iontophoresis device for the transcutaneous delivery of an active principle such as an anionic oligosaccharide” (Sanofi, priority 1995, dated 1999).
# What was measured:
# [1] = Administration of pentasaccharide sodium salt in minipigs: iontophoresis vs passive, I.V. and subcutaneous; plasma antifactor Xa (Example 3); assay type: in vivo, minipig (YUCATAN strain)
# Method: Administration in minipigs of pentasaccharide sodium salt by iontophoresis at a set current density
# Specialists consider minipigs of the YUCATAN strain to be an excellent animal model for studying the administration in man of medicaments by iontophoresis. This is because the skin structure of this animal is very similar to that of human skin.
# The following tests were carried out on the aforementioned minipig with the aim of comparing the administration of the sodium salt of the pentasaccharide used in the previous examples by iontophoresis with administration by subcutaneous or intravenous injection.
# For these tests, pairs of adhesive electrode sets were formed, each pair having a donor electrode assembly formed by a reversible negative electrode (active electrode) in contact with a first reservoir element holding the pentasaccharide to be administered, and a passive electrode assembly formed by a positive electrode (back electrode) in contact with a second reservoir element (receptacle element) holding an indifferent electrolyte.
# Referring to the figure, each electrode assembly included a disc 1 of polyethylene foam having an axial cylindrical recess 2, the said disc having an adhesive face 3 and a non-adhesive face 4, each of the said faces having the shape of an annular area with a width of two centimetres. The end 5 of the recess in the disc, on the non-adhesive face side, was closed off by an electrode 6 in the form of a silver disc chlorided on one of its faces, the said disc having a cross-sectional area of 20 cm^2. The chlorided face 7 of the electrode disc is turned towards the interior of the recess. […] The said support disc, having a diameter intermediate between that of the electrode 6 and the disc 1, was bonded onto the non-adhesive face of the latter disc. The recess 2 in the disc 1 was filled with a conductive hydrogel 11 forming the reservoir element. The adhesive face 3 of the disc 1 was coated with a pressure-sensitive adhesive designed to be applied to the skin, the said face 3 and the face 12 adjacent to the reservoir element 11 being initially covered with a peelable non-stick polyester protective film which was removed before application to the skin.
# In the donor electrode assembly, the negative electrode (active electrode) of chlorided silver contained a quantity of silver chloride equivalent to 1.8 mAh/cm^2, thus allowing the electrode to sustain the quantity of current flowing through the electrodes over the duration of the iontophoretic treatment, namely 1.2 mAh/cm^2. The reservoir element associated with the negative electrode was filled over a thickness of 2 mm, i.e. a quantity of 4 g over the 20 cm^2 of electrode, with a hydrogel based on xanthan and carob extract having 3% of dry extract and containing 2% by weight of sodium salt of the pentasaccharide of formula (I) given above. The donor electrode assembly therefore contained 80 mg of pentasaccharide in a ratio of 4 mg/cm^2 for each of the animals which were treated.
# In the passive electrode assembly, the positive electrode (back electrode) made of chlorided silver contained a quantity of silver chloride equivalent to 0.1 mAh/cm^2, and the reservoir element associated with this electrode consisted of the same hydrogel as the one present in the donor electrode assembly, but without pentasaccharide and instead holding 4% by weight of NaCl.
# An electrical signal generator, connectable to the electrodes of each electrode assembly pair, made it possible to deliver between the said electrodes a pulsed electrical signal of controlled intensity, having a frequency of 25 kHz and a duty ratio equal to 50%. […]
# [2] = Transdermic passage of sodium pentasaccharide salt by iontophoresis at constant voltage through nude rat skin (Example 1)
# Method: Study of the transdermic passage of a sodium pentasaccharide salt by iontophoresis at constant voltage.
# The operation was carried out in iontophoresis cells of identical structure. Each iontophoresis cell consisted of three coaxial adjacent cylindrical compartments having a cross-sectional area of 2 cm^2, namely, in this order, a donor compartment, a receiver compartment and a back-electrode compartment, these three compartments being each separated from the following one in leak-tight fashion by a piece of nude rat skin (OFA/hr/hr) used as a membrane for studying the transcutaneous diffusion. […] The receiver compartment, having a volume of 10 ml, held physiological saline solution supplemented with 500 ppm of NaN3 and was stirred using a magnetic bar. The back-electrode compartment, which was identical to the donor compartment, held 0.5 ml of a 2% by weight aqueous solution of sodium chloride as well as 500 ppm by weight of NaN3. At its opposite end from the receiver compartment, the donor compartment was equipped with a negative electrode. In the same way as the donor compartment, the back-electrode compartment was equipped with a positive electrode (back electrode).
# The rat skin samples had had the subcutaneous tissue removed and had been preserved by freezing at -40° C. until they were mounted in the iontophoresis cell, with the dermic faces turned towards the receiver compartment, after they had been placed for 15 minutes in physiological saline solution supplemented with 500 ppm of NaN3.
# For each of the tests which were carried out, four identical iontophoresis cells were started simultaneously. The active exchange surface area was 2 cm^2 for each skin.
# A pulsed current generator made it possible to set up an electrical signal of the potentiostatic type between the electrodes of the four cells, mounted in parallel, with a peak voltage equal to 2.2 volts and a duty ratio of 50% (i.e. an average voltage of 1.1 volts) and a frequency of 25 kHz.
# The pulsed current produced by the generator was applied for 6 hours, the electrode of the donor compartment of each cell being connected to the negative pole of the said generator, and the back electrodes to the positive pole.
# At the end of the said time, an aliquot of the medium contained in the receiver compartment was withdrawn and the quantity of pentasaccharide that had passed through the skin separating the donor and the receiver compartments of each cell was determined by assay. A second sample was taken 24 hours after the start of each experiment, i.e. 18 hours after the electrical signal had stopped.
# Five tests 1a to 1e were carried out as follows:
# Test 1a: The negative electrode and the positive electrode consisted of a titanium film having a thickness equal to 10 μm. No voltage was applied to the electrodes, in order to determine the passive transcutaneous diffusion.
# Test 1b: The negative electrode and the positive electrode consisted of a graphite sheet having a thickness of 60 μm.
# Test 1c: The negative electrode and the positive electrode consisted of a titanium film having a thickness equal to 10 μm.
# Test 1d to 1e: The negative electrode consisted of a silver film having a thickness of 15 μm, chlorided beforehand on one face in order to contain a silver chloride layer corresponding to 1.8 mAh/cm^2, whereas the positive electrode consisted of a silver film having a thickness of 15 μm, very slightly chlorided on one face (a quantity of silver chloride corresponding to 0.1 mAh/cm^2, the chlorided face of each electrode being on the side adjacent to the rat skin membrane.
# In tests Ia to Id, the donor and the receiver compartments of each cell held a 0.06 molar buffer composition based on sodium monohydrogenphosphate and dihydrogenphosphate in equimolar quantities, so as to keep the pH in the said compartments at a value of about 7. In test 1e, no buffer was used.
# [3] = test 3b: iontophoresis 0.20 mA/cm^2, 6 hours
# [4] = test 3c: I.V. bolus 0.240 mg/kg
# [5] = test 3d: subcutaneous 0.200 mg/kg
compound,measurement,setting,value
O=C(O)C1OC(OC2C(COS(=O)(=O)O)OC(OC3C(C(=O)O)OC(OC4C(COS(=O)(=O)O)OC(O)C(NS(=O)(=O)O)C4O)C(OS(=O)(=O)O)C3O)C(NS(=O)(=O)O)C2OS(=O)(=O)O)C(O)C(O)C1OC1OC(COS(=O)(=O)O)C(O)C(O)C1NS(=O)(=O)O (stereo not drawn) [pentasaccharide],Plasma level at 0 minutes,"[1]; test 3a: passive, no current","0 ""Golden standard"" units of ant"
same,Plasma level at 5 minutes,"[1]; test 3a: passive, no current","0 ""Golden standard"" units of ant"
same,Plasma level at 15 minutes,"[1]; test 3a: passive, no current","0 ""Golden standard"" units of ant"
same,Plasma level at 30 minutes,"[1]; test 3a: passive, no current","0 ""Golden standard"" units of ant"
same,Plasma level at 1 hour,"[1]; test 3a: passive, no current","0 ""Golden standard"" units of ant"
same,Plasma level at 2 hours,"[1]; test 3a: passive, no current","0 ""Golden standard"" units of ant"
same,Plasma level at 4 hours,"[1]; test 3a: passive, no current","0 ""Golden standard"" units of ant"
same,Plasma level at 6 hours,"[1]; test 3a: passive, no current","0 ""Golden standard"" units of ant"
same,Plasma level at 8 hours,"[1]; test 3a: passive, no current","0 ""Golden standard"" units of ant"
same,Plasma level at 12 hours,"[1]; test 3a: passive, no current","0 ""Golden standard"" units of ant"
same,Plasma level at 24 hours,"[1]; test 3a: passive, no current","0 ""Golden standard"" units of ant"
same,Plasma level at 30 hours,"[1]; test 3a: passive, no current","0 ""Golden standard"" units of ant"
same,"plasma levels, expressed in terms of antifactor Xa, compared with intravenous or subcutaneous injections",[1]; test 3b: iontophoresis,higher plasma levels
same,Plasma level at 0 minutes,[1]; [3],"0 ""Golden standard"" units of ant"
same,Plasma level at 15 minutes,[1]; [3],"0.06 ± 0.04 ""Golden standard"" units of ant"
same,Plasma level at 30 minutes,[1]; [3],"0.15 ± 0.12 ""Golden standard"" units of ant"
same,Plasma level at 1 hour,[1]; [3],"0.31 ± 0.15 ""Golden standard"" units of ant"
same,Plasma level at 2 hours,[1]; [3],"0.45 ± 0.2 ""Golden standard"" units of ant"
same,Plasma level at 4 hours,[1]; [3],"0.64 ± 0.18 ""Golden standard"" units of ant"
same,Plasma level at 6 hours,[1]; [3],"0.74 ± 0.16 ""Golden standard"" units of ant"
same,Plasma level at 8 hours,[1]; [3],"0.52 ± 0.13 ""Golden standard"" units of ant"
same,Plasma level at 12 hours,[1]; [3],"0.4 ± 0.08 ""Golden standard"" units of ant"
same,Plasma level at 24 hours,[1]; [3],"0.11 ± 0.03 ""Golden standard"" units of ant"
same,Plasma level at 30 hours,[1]; [3],"0 ""Golden standard"" units of ant"
same,"bioavailability (active principle administered, normalized to quantity present in the electrodes)","[1]; test 3b, 80 mg engaged",about 9%
same,quantity of pentasaccharide administered per mAh,"[1]; test 3b, for 1 mAh/cm^2",292 μg/cm^2
same,quantity of pentasaccharide administered per cm^2,"[1]; test 3b, for 1.2 mAh/cm^2",350 μg/cm^2
same,quantity of pentasaccharide actually administered by iontophoresis,"[1]; test 3b, for the 20 cm^2, from areas under the curves",7 ± 1.3 mg
same,Plasma level at 0 minutes,[1]; [4],"0 ""Golden standard"" units of ant"
same,Plasma level at 5 minutes,[1]; [4],"1.04 ± 0.12 ""Golden standard"" units of ant"
same,Plasma level at 15 minutes,[1]; [4],"0.91 ± 0.13 ""Golden standard"" units of ant"
same,Plasma level at 30 minutes,[1]; [4],"0.65 ± 0.11 ""Golden standard"" units of ant"
same,Plasma level at 1 hour,[1]; [4],"0.53 ± 0.10 ""Golden standard"" units of ant"
same,Plasma level at 2 hours,[1]; [4],"0.30 ± 0.09 ""Golden standard"" units of ant"
same,Plasma level at 4 hours,[1]; [4],"0.29 ± 0.08 ""Golden standard"" units of ant"
same,Plasma level at 6 hours,[1]; [4],"0.22 ± 0.09 ""Golden standard"" units of ant"
same,Plasma level at 8 hours,[1]; [4],"0.17 ± 0.06 ""Golden standard"" units of ant"
same,Plasma level at 12 hours,[1]; [4],"0.07 ± 0.05 ""Golden standard"" units of ant"
same,Plasma level at 24 hours,[1]; [4],"0 ""Golden standard"" units of ant"
same,Plasma level at 30 hours,[1]; [4],"0 ""Golden standard"" units of ant"
same,Plasma level at 0 minutes,[1]; [5],"0 ""Golden standard"" units of ant"
same,Plasma level at 15 minutes,[1]; [5],"0.11 ± 0.04 ""Golden standard"" units of ant"
same,Plasma level at 1 hour,[1]; [5],"0.17 ± 0.01 ""Golden standard"" units of ant"
same,Plasma level at 2 hours,[1]; [5],"0.22 ± 0.04 ""Golden standard"" units of ant"
same,Plasma level at 4 hours,[1]; [5],"0.26 ± 0.06 ""Golden standard"" units of ant"
same,Plasma level at 6 hours,[1]; [5],"0.24 ± 0.01 ""Golden standard"" units of ant"
same,Plasma level at 8 hours,[1]; [5],"0.15 ± 0.07 ""Golden standard"" units of ant"
same,Plasma level at 12 hours,[1]; [5],"0.08 ± 0.03 ""Golden standard"" units of ant"
same,Plasma level at 24 hours,[1]; [5],"0 ""Golden standard"" units of ant"
same,Plasma level at 30 hours,[1]; [5],"0 ""Golden standard"" units of ant"
same,quantities of pentasaccharide diffused into the receiver compartment by iontophoresis,[2]; Ag/AgCl negative electrodes (reversible),increase very greatly
same,Fraction of active principle used (%),"[2]; at 6 hours, test 1a: titanium, 0 V (passive)",~ zero
same,Fraction of active principle used (%),"[2]; at 6 hours, test 1b: graphite, 1.1 V",0.1%
same,Fraction of active principle used (%),"[2]; at 6 hours, test 1c: titanium, 1.1 V",0.08%
same,Fraction of active principle used (%),"[2]; at 6 hours, test 1e: Ag/AgCl, 1.1 V, no buffer",2.8%
same,Fraction of active principle used (%),"[2]; at 6 hours, test 1d: Ag/AgCl, 1.1 V, buffer",1.4%
same,Fraction of active principle used (%),"[2]; at 24 hours, test 1a: titanium, 0 V (passive)",~ zero
same,Fraction of active principle used (%),"[2]; at 24 hours, test 1b: graphite, 1.1 V",0.2%
same,Fraction of active principle used (%),"[2]; at 24 hours, test 1c: titanium, 1.1 V",0.15%
same,Fraction of active principle used (%),"[2]; at 24 hours, test 1e: Ag/AgCl, 1.1 V, no buffer",3.3%
same,Fraction of active principle used (%),"[2]; at 24 hours, test 1d: Ag/AgCl, 1.1 V, buffer",1.5%
same,quantities of pentasaccharide diffused into the receiver compartment by iontophoresis,[2]; irreversible electrodes such as graphite or titanium,very small and similar to the passive transport
same,Antifactor activity Xa/ml at 6 hours,"[2]; test 1a: titanium electrodes, 0 V (passive), buffer pH about 7",< 0.1 units per ml
same,Antifactor activity Xa/ml at 24 hours,"[2]; test 1a: titanium, 0 V (passive)",0.25 units per ml
same,Antifactor activity Xa/ml at 6 hours,"[2]; test 1b: graphite electrode, average 1.1 V, buffer",0.70 units per ml
same,Antifactor activity Xa/ml at 24 hours,"[2]; test 1b: graphite, 1.1 V, 18 hours after current stopped",1.13 units per ml
same,Antifactor activity Xa/ml at 6 hours,"[2]; test 1c: titanium electrode, average 1.1 V, buffer",0.50 units per ml
same,Antifactor activity Xa/ml at 24 hours,"[2]; test 1c: titanium, 1.1 V, 18 hours after current stopped",0.95 units per ml
same,Antifactor activity Xa/ml at 6 hours,"[2]; test 1e: Ag/AgCl electrode, average 1.1 V, about 0.20 mA/cm^2, no buffer",18.1 units per ml
same,Antifactor activity Xa/ml at 24 hours,"[2]; test 1e: Ag/AgCl, 1.1 V, no buffer, 18 hours after current stopped",21.4 units per ml
same,Antifactor activity Xa/ml at 6 hours,"[2]; test 1d: Ag/AgCl electrode, average 1.1 V, about 0.20 mA/cm^2, buffer",9.1 units per ml
same,Antifactor activity Xa/ml at 24 hours,"[2]; test 1d: Ag/AgCl, 1.1 V, buffer, 18 hours after current stopped",9.7 units per ml
